≈ marks a conversion by molar mass, not a printed value. Where “and” joins values, the source holds several entries; their conditions need not be identical. Equal entries are not always repeated. Where two headings read alike, the source gives them in different places.
How the values were obtained:
Escherichia coli = experiment: MIC by broth microdilution against E. coli; format: cell-based; details: Escherichia coli, highly resistant strains
Procedure: (§1) In a typical study MIC tests were performed by broth microdilution in line with CLSI susceptibility testing standards. Bacterial inocula were prepared at ca. 1×10^6 CFU/mL by diluting 100-fold a 0.5 McFarland suspension in CA-MHB with TES. Microtiter plate wells containing 50 μL of antibacterial solutions at 2×the final concentrations were diluted 2-fold with 50 μL of inoculum to give a final inoculum of ca. 5×10^5 CFU/mL and desired test concentrations of antibacterial agents. Test microtiter plates were incubated according to CLSI guidelines and read visually. MIC values corresponded to the first well with no visible growth.
The results of antibacterial activity of amikacin, Ceftazidime-avibactam, Ceftriaxone with sulbactam and EDTA, Meropenem and Meropenem with avibactam and EDTA against highly resistant strains of Escherichia coli are given in Table 3. […] There was a marked improvement in antibacterial activity, compared to MEM alone, observed for the triple combination MEM/AVI [4 mg/L]/EDTA [10 mM] with a MIC90 at 0.004 μg/mL

Acinetobacter baumannii = experiment: MIC by broth microdilution against Acinetobacter baumannii; format: cell-based
Procedure: as §1
The results of antibacterial activity of amikacin, Ceftazidime-avibactam, Ceftriaxone with sulbactam and EDTA, Meropenem and Meropenem with avibactum and EDTA against highly resistant strains of Acinetobacter baumannii are given in Table 7.

P. aeruginosa [1] = experiment: MIC by broth microdilution against P. aeruginosa; format: cell-based, Pseudomonas aeruginosa; details: Pseudomonas aeruginosa, highly resistant strains
Procedure: as §1
The results of antibacterial activity of amikacin, Ceftazidime-avibactam, Ceftriaxone with sulbactam and EDTA, Meropenem and Meropenem with avibactum and EDTA against highly resistant strains of P. aeruginosa are given in Table 5. As may be seen, the activity of the comparators was much lower although CRO/S4/E10 maximum MIC90 were much lower at ≤0.03 μg/mL.

[2] = tested on: Enterobacterales isolates from India; experiment: MIC by broth microdilution against Enterobacterales; format: cell-based, Enterobacteriaceae; details: n=301
Procedure: as §1
The results of antibacterial activity of amikacin, Ceftazidime-avibactam, Ceftriaxone with sulbactam and EDTA, Meropenem and Meropenem with avibactam and EDTA against highly resistant strains of Enterobacteriaceae are given in Table 2.

[3] = tested on: Non-Enterobacteriaceae (non-fermenter isolates); experiment: MIC by broth microdilution against Non-Enterobacteriaceae; format: cell-based
Procedure: as §1

[4] = tested on: Stenotrophomonas maltophilia; experiment: MIC by broth microdilution against Stenotrophomonas maltophilia; format: cell-based; details: Stenotrophomonas maltophilia, highly resistant strains
Procedure: as §1
The results of antibacterial activity of amikacin, Ceftazidime-avibactam, Ceftriaxone with sulbactam and EDTA, Meropenem and Meropenem with avibactum and EDTA against highly resistant strains of Stenotrophomonas maltophilia are given in Table 8.

K. pneumoniae [5] = experiment: MIC by broth microdilution against Klebsiella; format: cell-based, Klebsiella pneumoniae; details: highly resistant strains
Procedure: as §1
The results of antibacterial activity of amikacin, Ceftazidime-avibactam, Ceftriaxone with sulbactam and EDTA, Meropenem and Meropenem with avibactam and EDTA against highly resistant strains of Klebsiella (93. 3% Mem NS) are given in Table 4.

[6] = tested on: all grouped isolates from India; experiment: MIC by broth microdilution against all grouped isolates from India; format: cell-based, resistant bacterial strains
Procedure: as §1
There was a marked improvement in antibacterial activity, compared to MEM alone, observed for the triple combinations, for MEM/AVI [4 mg/L]/EDTA [10 mM] and MEM/AVI [4 mg/L]/EDTA [20 mM], the reduction in MIC90 was 0.06 μg/mL and ≤0.002 μg/mL, respectively.

K. pneumoniae [7] = experiment: MIC profile of EDTA, K. pneumoniae; format: cell-based, Klebsiella pneumoniae
Procedure: (§2) Objective: The in-vitro activity of ethylenediaminetetraacetic acid (EDTA) was tested in cation-adjusted Mueller Hinton broth (CA-MHB) and MHB against a panel of Gram-negative clinical isolates from India.
(§3) Method: A total of 80 isolates including ATCC strains and non-duplicate clinically relevant Escherichia coli (n=20), Klebsiella pneumoniae (n=20), Pseudomonas aeruginosa (n=21) and Acinetobacter baumannii (n=19) characterized isolates were selected prior to susceptibility testing. The clinical isolates were collected from hospitalized patients from tertiary care medical centers in India. Isolates were tested for susceptibility to different test concentrations of EDTA (1.25, 2.5, 5, 10, 20, 40, 80 mM) in CA-MHB media and MHB by broth microdilution.

E. coli = experiment: MIC profile of EDTA, E. coli; format: cell-based, Escherichia coli; details: for MIC50 / MIC90 / MIC: Escherichia coli, n = 20
Procedure: as §2, §3

P. aeruginosa [8] = experiment: MIC profile of EDTA, P. aeruginosa; format: cell-based, Pseudomonas aeruginosa; details: for MIC: CA-MHB
Procedure: as §2, §3

Non-fermenters = experiment: MIC profile of EDTA, non-fermenters; format: cell-based; details: n = 40; for MIC: CA-MHB
Procedure: as §2, §3

Enterobacterales = experiment: MIC profile of EDTA, Enterobacterales; format: cell-based; details: n = 40
Procedure: as §2, §3

A. baumannii = experiment: MIC profile of EDTA, A. baumannii; format: cell-based, Acinetobacter baumannii
Procedure: as §2, §3

All isolates (n = 80) = experiment: MIC profile of EDTA, all tested isolates; format: cell-based, Gram-negative clinical isolates
Procedure: as §2, §3

## NCC[C@H](O)C(=O)N[C@@H]1C[C@H](N)[C@@H](O[C@H]2O[C@H](CN)[C@@H](O)[C@H](O)[C@H]2O)[C@H](O)[C@H]1O[C@H]1O[C@H](CO)[C@@H](O)[C@H](N)[C@H]1O [Amikacin]
Escherichia coli; read-out: MIC50
  MIC50: 8 µg/mL
Escherichia coli; read-out: MIC90
  MIC90: > 64 µg/mL
Acinetobacter baumannii; Acinetobacter baumannii
  MIC90: > 64 µg/mL
Acinetobacter baumannii; Acinetobacter baumannii, highly resistant strains
  MIC50: > 64 µg/mL
Acinetobacter baumannii; highly resistant strains
  MIC90: >64 µg/mL
P. aeruginosa [1]
  MIC50: > 64 µg/mL
P. aeruginosa [1]; read-out: MIC90
  MIC90: > 64 µg/mL
[2]
  MIC90: >64 µg/mL
[2]; read-out: MIC50
  MIC50: > 64 µg/mL
[2]; read-out: MIC90
  MIC90: > 64 µg/mL
[3]
  MIC50: > 64 µg/mL
  MIC90: > 64 µg/mL
[3]; highly resistant strains
  MIC90: >64 µg/mL
[4]; read-out: MIC50
  MIC50: > 64 µg/mL
[4]; read-out: MIC90
  MIC90: > 64 µg/mL
K. pneumoniae [5]; Klebsiella pneumoniae, read-out: MIC50
  MIC50: > 64 µg/mL
K. pneumoniae [5]; Klebsiella pneumoniae, read-out: MIC90
  MIC90: > 64 µg/mL
K. pneumoniae [5]
  MIC90: >64 µg/mL
[6]
  MIC50: > 64 µg/mL
  MIC90: > 64 µg/mL
[6]; all grouped isolates (606)
  MIC90: > 64 µg/mL

## O=C(O)CN(CCN(CC(=O)O)CC(=O)O)CC(=O)O [EDTA, N,N′-(Ethane-1,2-diyl)bis[N-(carboxymethyl)glycine]]
K. pneumoniae [7]; CA-MHB, n = 20
  MIC90: >80 mM
K. pneumoniae [7]; Klebsiella pneumoniae
  MIC50: 80 mM (≈ 23400 µg/mL)
K. pneumoniae [7]; Klebsiella pneumoniae, CA-MHB, n = 20
  MIC90: > 80 mM
K. pneumoniae [7]; Klebsiella pneumoniae, CA-MHB, n = 20, read-out: MIC MAX
  MIC: > 80 mM
K. pneumoniae [7]; Klebsiella pneumoniae, CA-MHB, n = 20, read-out: MIC MIN
  MIC: 20 mM (≈ 5840 µg/mL)
K. pneumoniae [7]; Klebsiella pneumoniae, MHB, n = 20
  MIC90: 80 mM (≈ 23400 µg/mL)
K. pneumoniae [7]; Klebsiella pneumoniae, MHB, n = 20, read-out: MIC MAX
  MIC: > 80 mM
K. pneumoniae [7]; Klebsiella pneumoniae, MHB, n = 20, read-out: MIC MIN
  MIC: 5 mM (≈ 1460 µg/mL)
K. pneumoniae [7]; MHB vs CA-MHB
  MIC in MHB compared to CA-MHB: almost similar to CA-MHB
K. pneumoniae [7]; MHB, n = 20
  MIC50: 80 mM (≈ 23400 µg/mL)
E. coli; CA-MHB
  MIC50: 10 mM (≈ 2920 µg/mL)
  MIC90: 80 mM (≈ 23400 µg/mL)
E. coli; CA-MHB, read-out: MIC MAX
  MIC: > 80 mM
E. coli; CA-MHB, read-out: MIC MIN
  MIC: 2.5 mM (≈ 731 µg/mL)
E. coli; MHB
  MIC50: 2.5 mM (≈ 731 µg/mL)
  MIC90: 20 mM (≈ 5840 µg/mL)
E. coli; MHB, read-out: MIC MAX
  MIC: 80 mM (≈ 23400 µg/mL)
E. coli; MHB, read-out: MIC MIN
  MIC: ≤ 1.25 mM
E. coli; MHB vs CA-MHB
  MIC50 and MIC90 in MHB, fold lower to CA-MHB: 4 fold
P. aeruginosa [8]; MHB, n = 21
  MIC50: 10 mM (≈ 2920 µg/mL)
  MIC90: 20 mM (≈ 5840 µg/mL)
  MIC MAX: 20 mM (≈ 5840 µg/mL)
  MIC MIN: ≤1.25 mM
P. aeruginosa [8]; Pseudomonas aeruginosa
  MIC50: 10 mM (≈ 2920 µg/mL)
  MIC90: 20 mM (≈ 5840 µg/mL)
P. aeruginosa [8]; Pseudomonas aeruginosa, n = 21, read-out: MIC MAX
  MIC: 20 mM (≈ 5840 µg/mL)
P. aeruginosa [8]; Pseudomonas aeruginosa, n = 21, read-out: MIC MIN
  MIC: ≤ 1.25 mM
Non-fermenters; read-out: MIC MAX
  MIC: 20 mM (≈ 5840 µg/mL)
Non-fermenters; read-out: MIC MIN
  MIC: ≤ 1.25 mM
Non-fermenters; MHB
  MIC MAX: 20 mM (≈ 5840 µg/mL)
  MIC MIN: ≤1.25 mM
Enterobacterales; CA-MHB
  MIC50: 40 mM (≈ 11700 µg/mL)
  MIC90: > 80 mM and >80 mM
Enterobacterales; CA-MHB, read-out: MIC MAX
  MIC: > 80000 µM
Enterobacterales; CA-MHB, read-out: MIC MIN
  MIC: 2500 µM (≈ 731 µg/mL)
Enterobacterales; MHB
  MIC50: 10 mM (≈ 2920 µg/mL)
  MIC90: 80 mM (≈ 23400 µg/mL)
Enterobacterales; MHB, read-out: MIC MAX
  MIC: > 80000 µM
Enterobacterales; MHB, read-out: MIC MIN
  MIC: ≤ 1250 µM
A. baumannii; Acinetobacter baumannii, read-out: MICs
  MIC: ≤ 1250 µM
A. baumannii; Acinetobacter baumannii, CA-MHB, n = 19, read-out: MIC50
  MIC50: ≤ 1250 µM
A. baumannii; Acinetobacter baumannii, CA-MHB, n = 19, read-out: MIC90
  MIC90: ≤ 1250 µM
A. baumannii; Acinetobacter baumannii, CA-MHB, n = 19, read-out: MIC MAX
  MIC: ≤ 1250 µM
A. baumannii; Acinetobacter baumannii, CA-MHB, n = 19, read-out: MIC MIN
  MIC: ≤ 1250 µM
A. baumannii; MHB, n = 19
  MIC50: ≤1250 µM
  MIC90: ≤1250 µM
  MIC MAX: ≤1.25 mM
  MIC MIN: ≤1.25 mM
All isolates (n = 80); CA-MHB
  MIC50: 10 mM (≈ 2920 µg/mL)
  MIC90: > 80 mM and >80 mM
All isolates (n = 80); CA-MHB, read-out: MIC MAX
  MIC: > 80 mM
All isolates (n = 80); CA-MHB, read-out: MIC MIN
  MIC: ≤ 1.25 mM
All isolates (n = 80); MHB
  MIC50: 2.5 mM (≈ 731 µg/mL)
  MIC90: 80 mM (≈ 23400 µg/mL)
  MIC MAX: >80 mM
  MIC MIN: ≤1.25 mM
